Measurements published in patent US10774071B2, “PD-1/PD-L1 inhibitors” (Gilead Sciences, Inc., priority 2018, dated 2020).
Where two headings read alike, the source gives them in different places.

Columns and labels:
[1] = biological target: PD-L1 (Homo sapiens (Human), UniProt Q9NZQ7); assay: PD-L1/PD-L1 dimerization biochemical protein-protein interaction assay (ALPHA); assay type: binding; conditions: read-out: AC50 PDL1 Dimer 1 nM
[2] = biological target: PD-1/PD-L1 (Homo sapiens (Human), UniProt Q9NZQ7); assay: PD-1/PD-L1 biochemical protein-protein interaction assay (ALPHA); assay type: binding; conditions: read-out: IC50 PD-L1-PD1
[3] = 0.5 nM His tagged PD-L1 and 0.5 nM FLAG tagged PD-L1, Table 4A
[4] = 0.3 nM His tagged PD-L1, 2.5 nM biotinylated Fc-PD-1, readings of 0.064 nM are equal to or less than 0.064 nM
[5] = 0.5 nM His tagged PD-L1 and 0.5 nM FLAG tagged PD-L1, Table 4B
[6] = 0.3 nM His tagged PD-L1, 2.5 nM biotinylated Fc-PD-1, Table 3B

PD-L1, sequence (Q9NZQ7 19-238): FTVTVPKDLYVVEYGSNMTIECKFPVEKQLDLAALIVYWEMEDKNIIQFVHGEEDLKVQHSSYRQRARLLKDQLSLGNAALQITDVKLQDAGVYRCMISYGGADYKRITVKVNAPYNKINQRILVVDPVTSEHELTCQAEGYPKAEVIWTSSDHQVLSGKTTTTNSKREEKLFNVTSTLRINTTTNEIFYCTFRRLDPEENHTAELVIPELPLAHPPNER
PD-L1, sequence (Q9NZQ7 19-238): as above
PD-1/PD-L1, sequence (Q9NZQ7 19-238): as above

| SMILES | AC50 [1, 3] | IC50 [2, 4] | AC50 [1, 5] | IC50 [2, 6] |
| --- | --- | --- | --- | --- |
| COc1cc(N[C@H]2CCc3c(-c4cccc(-c5ccc(CNC[C@@H]6CCC(=O)N6)c(OC)n5)c4Cl)cccc32)c(Cl)cc1CN1CC[C@H](C(=O)O)C1 [A-15] | 51.6 nM | ≤ 0.064 nM | – | – |
| COc1cc(-c2cccc(-c3cccc4c3CC[C@@H]4Nc3nc(OC)c(CN4CC[C@@H](C(=O)O)C4)nc3C(F)(F)F)c2Cl)cc(F)c1CNC[C@@H]1CCC(=O)N1 [A-31] | 6.84 nM | ≤ 0.064 nM | – | – |
| COc1nc(-c2cccc(-c3cccc4c3CC[C@@H]4Nc3nc(OC)c(CN[C@@H](C)C(=O)O)nc3C(F)(F)F)c2Cl)ccc1CN1CC(O)C1 [A-72] | 13.4 nM | ≤ 0.064 nM | – | – |
| COc1nc(-c2cccc(-c3cccc4c3CC[C@@H]4Nc3nc(OC)c(CN4CCC5CC4(C(=O)O)C5)nc3C(F)(F)F)c2Cl)ccc1CNC[C@@H]1CCC(=O)N1 [A-70] | 15.6 nM | ≤ 0.064 nM | – | – |
| COc1nc(-c2cccc(-c3cccc4c3CC[C@@H]4Nc3nc(OC)c(CNCCC(=O)O)nc3C(F)(F)F)c2Cl)ccc1CN[C@H]1C[C@](C)(O)C1 [A-93] | 83 nM | ≤ 0.064 nM | – | – |
| COc1nc(-c2cccc(-c3cccc4c3CC[C@@H]4Nc3nc(OC)c(CN[C@H](C(=O)O)C4CC4)cc3C(F)(F)F)c2Cl)ccc1CN[C@H]1C[C@](C)(O)C1 [A-90] | 21.6 nM | ≤ 0.064 nM | – | – |
| COc1nc(-c2cccc(-c3cccc4c3CC[C@@H]4Nc3nc(OC)c(CN4CC(C)(O)C4)cc3Cl)c2Cl)ccc1CNC[C@@H]1CCC(=O)N1 [A-6] | 188 nM | 0.67 nM | – | – |
| COc1nc(-c2cccc(-c3cccc4c3CC[C@@H]4Nc3nc(OC)c(CN4CCC[C@]4(C)C(=O)O)cc3C(F)(F)F)c2Cl)ccc1CNC[C@@H]1CCC(=O)N1 [A-38] | 16.9 nM | ≤ 0.064 nM | – | – |
| COc1nc(-c2cccc(-c3cccc4c3CC[C@@H]4Nc3nc(OC)c(CN4CC5CC(C(=O)O)C4C5)nc3C(F)(F)F)c2Cl)ccc1CNC[C@@H]1CCC(=O)N1 (stereo partly drawn) [A-81] | 23.1 nM | ≤ 0.064 nM | – | – |
| COc1nc(-c2cccc(-c3cccc4c3CC[C@@H]4Nc3nc(OC)c(CN[C@@H](C)C(=O)O)nc3C(F)(F)F)c2Cl)ccc1CN1CC(C)(O)C1 [A-74] | 9.07 nM | ≤ 0.064 nM | – | – |
| COc1nc(-c2cccc(-c3cccc4c3CC[C@@H]4Nc3nc(OC)c(CNC(C)(C)C(=O)O)nc3C(F)(F)F)c2Cl)ccc1CN[C@H]1C[C@](C)(O)C1 [A-95] | 21.2 nM | ≤ 0.064 nM | – | – |
| COc1nc(-c2cccc(-c3cccc4c3CC[C@@H]4Nc3nc(OC)c(CN[C@@H](C)C(N)=O)cc3C(F)(F)F)c2Cl)ccc1CNC[C@@H]1CCC(=O)N1 [A-98] | 40.3 nM | ≤ 0.064 nM | – | – |
| COc1nc(-c2cccc(-c3cccc4c3CC[C@@H]4Nc3nc(OC)c(CN4CC[C@@H](C(=O)O)C4)cc3Cl)c2Cl)ccc1CNC[C@@H]1CCC(=O)N1 [A-8] | 79.7 nM | ≤ 0.064 nM | – | – |
| COc1nc(-c2cccc(-c3cccc4c3CC[C@@H]4Nc3nc(OC)c(CN4CC[C@@](C)(C(=O)O)C4)nc3C(F)(F)F)c2Cl)ccc1CNC[C@@H]1CCC(=O)N1 [A-20] | 29.1 nM | ≤ 0.064 nM | – | – |
| COc1nc(-c2cccc(-c3cccc4c3CC[C@@H]4Nc3nc(OC)c(CN4CC(C(=O)O)C4)cc3C(F)(F)F)c2Cl)ccc1CN[C@H]1C[C@](C)(O)C1 [A-57] | 29.6 nM | ≤ 0.064 nM | – | – |
| COc1nc(-c2cccc(-c3cccc4c3CC[C@@H]4Nc3nc(OC)c(CNCC(=O)O)nc3C(F)(F)F)c2Cl)ccc1CNC[C@@H]1CCC(=O)N1 [A-107] | 8.64 nM | ≤ 0.064 nM | – | – |

Next, values leading:

| AC50 [1, 3] | IC50 [2, 4] | AC50 [1, 5] | IC50 [2, 6] | SMILES |
| --- | --- | --- | --- | --- |
| – | – | 46.9 nM | 0.064 nM | COc1nc(O[C@H]2CCc3c(-c4cccc(-c5cnc(CNC[C@@H]6CCC(=O)N6)c(OC)n5)c4C)cccc32)c(Cl)cc1CN1CC2(C(=O)O)CCC1CC2 [B-80] |
| – | – | 1.62 nM | 0.064 nM | COc1cc(-c2cccc(-c3cccc4c3CC[C@@H]4Oc3nc(OC)c(CNC(C)(C)C(=O)O)cc3C(F)(F)F)c2Cl)ccc1CNC[C@@H]1CCC(=O)N1 [B-121] |
| – | – | 20.1 nM | 0.064 nM | COc1nc(-c2cccc(-c3cccc4c3CC[C@@H]4Oc3nc(OC)c(CN4C[C@@H](C)[C@H](C(=O)O)C4)cc3Cl)c2Cl)ccc1CNC[C@@H]1CCC(=O)N1 [B-107] |
| – | – | 10.5 nM | 0.064 nM | COc1cc(-c2cccc(-c3cccc4c3CC[C@@H]4Oc3nc(OC)c(CN4CC[C@@H](C(=O)O)C4)cc3Cl)c2Cl)cc(F)c1CNC[C@@H]1CCC(=O)N1 [B-131] |
| – | – | 28 nM | 0.064 nM | COc1nc(-c2cccc(-c3cccc4c3CC[C@@H]4Oc3nc(OC)c(CN4CC[C@@H](C(=O)O)C4)nc3Br)c2Cl)cnc1CNC[C@@H]1CCC(=O)N1 [B-37] |
| – | – | 118 nM | 0.064 nM | COc1nc(O[C@H]2CCc3c(-c4cccc(-c5cnc(CNC[C@@H]6CCC(=O)N6)c(OC)n5)c4C)cccc32)c(Cl)cc1CN1CC[C@@H](C(=O)O)C1 [B-81] |
| – | – | 2.67 nM | 0.064 nM | COc1nc(-c2cccc(-c3cccc4c3CC[C@@H]4Oc3nc(OC)c(CN4CCC[C@H]4C(=O)O)cc3C(F)(F)F)c2Cl)ccc1CNC[C@@H]1CCC(=O)N1 [B-5] |
| – | – | 13.1 nM | 0.064 nM | COC[C@H](NCc1cc(C(F)(F)F)c(O[C@H]2CCc3c(-c4cccc(-c5ccc(CN[C@H]6C[C@](C)(O)C6)c(OC)n5)c4Cl)cccc32)nc1OC)C(=O)O [B-256] |
| – | – | 27.5 nM | 0.064 nM | COc1nc(-c2cccc(-c3cccc4c3CC[C@@H]4Oc3nc(OC)c(CN4CC5(C(=O)O)CCC4CC5)cc3Cl)c2Cl)ccc1CN1CC[C@@H](O)C1 [B-51] |
| – | – | 12.9 nM | 0.095 nM | COc1nc(-c2cccc(-c3cccc4c3CC[C@@H]4Oc3nc(OCc4cncc(Cl)c4)c(CNC4(C(=O)O)CC4)cc3Cl)c2Cl)ccc1CNC[C@@H]1CCC(=O)N1 [B-32] |
| – | – | 23.5 nM | 0.064 nM | COc1nc(-c2cccc(-c3cccc4c3CC[C@@H]4Oc3nc(OC)c(CN4CC[C@@](C)(C(=O)O)C4)cc3C(F)(F)F)c2Cl)ccc1CNC[C@H]1C[C@](C)(O)C1 [B-208] |
| – | – | 107 nM | 0.113 nM | COc1nc(O[C@H]2CCc3c(-c4cccc(-c5cc(C)c(CN6CC(C)(O)C6)c(OC)n5)c4Cl)cccc32)c(Cl)cc1CN1CC(C(=O)O)C1 [B-59] |
| – | – | 5.79 nM | 0.064 nM | COc1cc(-c2cccc(-c3cccc4c3CC[C@@H]4Oc3nc(OC)c(CN4CC[C@@H](C(=O)O)C4)cc3C(F)(F)F)c2Cl)cc(F)c1CNC[C@@H]1CCC(=O)N1 [B-195] |
| – | – | 6.8 nM | 0.064 nM | COc1cc(-c2cccc(-c3cccc4c3CC[C@@H]4Oc3nc(OC)c(CNC(C)(C)CC(=O)O)cc3C(F)(F)F)c2Cl)cc(F)c1CNC[C@@H]1CCC(=O)N1 [B-192] |
| – | – | 15.2 nM | 0.064 nM | COc1nc(-c2cccc(-c3cccc4c3CC[C@@H]4Oc3nc(OC)c(CNC4(C(=O)O)CC4)cc3C(F)(F)F)c2Cl)ccc1CN1CC(C)(O)C1 [B-171] |
| – | – | 57.9 nM | 0.064 nM | COc1nc(-c2cccc(-c3cccc4c3CC[C@@H]4Oc3nc(OC)c(CN4CC[C@@H](C(=O)O)C4)cc3Cl)c2C)ccc1CNC[C@@H]1CCC(=O)N1 [B-78] |
| – | – | 17.3 nM | 0.064 nM | COc1cc(O[C@H]2CCc3c(-c4cccc(-c5ccc(CNC[C@@H]6CCC(=O)N6)c(OC)n5)c4Cl)cccc32)c(C(F)(F)F)cc1CN1CC[C@@](C)(C(=O)O)C1 [B-218] |
| – | – | 3.76 nM | 0.064 nM | COc1nc(-c2cccc(-c3cccc4c3CC[C@@H]4Oc3nc(OC)c(CN[C@H](C(=O)O)C4CC4)cc3C(F)(F)F)c2Cl)ccc1CNC[C@@H]1CCC(=O)N1 [B-268] |
| – | – | 10.2 nM | 0.064 nM | COc1nc(-c2cccc(-c3cccc4c3CC[C@@H]4Oc3nc(OC)c(CNC4(C(=O)O)CC5CCC4C5)cc3Cl)c2Cl)ccc1CNC[C@@H]1CCC(=O)N1 (stereo partly drawn) [B-139] |
| – | – | 19.7 nM | 0.064 nM | CCC1C(C(=O)O)CCN1Cc1cc(Cl)c(O[C@H]2CCc3c(-c4cccc(-c5ccc(CNC[C@@H]6CCC(=O)N6)c(OC)n5)c4Cl)cccc32)nc1OC (stereo partly drawn) [B-186] |
| – | – | 33.7 nM | 0.064 nM | COc1nc(-c2cccc(-c3cccc4c3CC[C@@H]4Oc3nc(OC)c(CNC45CC(C(=O)O)(C4)C5)cc3Cl)c2Cl)ccc1CNC[C@@H]1CCC(=O)N1 [B-20] |
| – | – | 66.4 nM | 0.064 nM | COc1nc(O[C@H]2CCc3c(-c4cccc(-c5cnc(CNC[C@@H]6CCC(=O)N6)cn5)c4Cl)cccc32)c(Cl)cc1CN1CC[C@@H](C(=O)O)C1 [B-97] |
| – | – | 7.77 nM | 0.064 nM | COc1nc(-c2cccc(-c3cccc4c3CC[C@@H]4Oc3nc(OC)c(CNCC(=O)O)cc3C(F)(F)F)c2Cl)ccc1CNC[C@H]1C[C@](C)(O)C1 [B-206] |
| – | – | 11.6 nM | 0.064 nM | COc1nc(-c2cccc(-c3cccc4c3CC[C@@H]4Oc3nc(OC)c(CN4C[C@@H]5C[C@@H]5[C@H]4C(=O)O)cc3C(F)(F)F)c2Cl)ccc1CNC[C@@H]1CCC(=O)N1 [B-138] |
| – | – | 31.1 nM | 0.064 nM | COc1nc(-c2cccc(-c3cccc4c3CC[C@@H]4Oc3nc(OC)c(CN4C[C@H]5[C@@H]([C@H]4C(=O)O)C5(C)C)cc3Cl)c2Cl)ccc1CNC[C@@H]1CCC(=O)N1 [B-182] |
| – | – | 60.4 nM | 0.064 nM | COc1nc(-c2cccc(-c3cccc4c3CC[C@@H]4Oc3nc(OC)c(CN4CC5(C(=O)O)CCC4CC5)cc3Cl)c2C)ccc1CNC[C@@H]1CCC(=O)N1 [B-77] |
| – | – | 20.2 nM | 0.064 nM | COc1nc(-c2cccc(-c3cccc4c3CC[C@@H]4Oc3nc(OC)c(CN4CC5(C(=O)O)CCC4CC5)nc3Cl)c2Cl)cnc1CNC[C@@H]1CCC(=O)N1 [B-45] |
| – | – | 102 nM | 0.22 nM | COc1nc(-c2cccc(-c3cccc4c3CC[C@@H]4Oc3nc(OC)c(CNC[C@@H]4CCC(=O)N4)nc3Cl)c2Cl)ccc1CNC[C@@H]1CCC(=O)N1 [B-155] |
| – | – | 48 nM | 0.064 nM | COc1nc(-c2cccc(-c3cccc4c3CC[C@@H]4Oc3nc(OC)c(CN4CC5(C(=O)O)CCC4CC5)cc3Cl)c2C#N)ccc1CNC[C@@H]1CCC(=O)N1 [B-68] |
